Assay results as given in patent publication US20180140545A1, “ANTIMICROBIAL PEPTIDE STIMULATING SANITIZING COMPOSITION” (GOJO Industries, Inc., priority 2016, published 2018).

Legend:
Assay type in all cases: cell-based
[1] = system: HBD-1; experiment: HBD-1 ELISA, dose response in Neonatal Human Epidermal Keratinocytes; conditions: for HBD-1: NHEK, overnight (16 hours); for increase in HBD-1 production and/or activity: vs control culture medium
Method: (§1) To determine the optimal dose of active ingredient, test dose response studies were run using both Decorinyl® and Pamitoyl Pentapeptided-3. These test dose response studies were commissioned to determine the concentration of HBD-1 at various levels of the active ingredients. Neonatal Human Epidermal Keratinocytes (NHEK; Life Technology, Grand Island, N.Y., USA) were cultured with keratinocyte growth medium (KGM, Medium 154: M-154-500 Life Technology with supplements S-001, Life Technologies). NHEK were seeded into 96-well plates at a density of 10000 cells in 200 μl medium per well. After 48 hours, the cells were incubated with varying concentrations of each ingredient solution in a culture medium (KGM) overnight (16 hours) at 37° C., 5% CO2 and 95% humidity at four replicates for each concentration. Each of these active ingredients was tested at the following weight percents based on the weight of the total culture: 0.02 wt. %, 0.05 wt. %, 0.1 wt. %, 0.2 wt. %, 0.5 wt. %, 1.0 wt. %, 2.0 wt. %. Each of these compositions was compared to a control culture medium.
(§2) HBD-1 was detected using HBD-1 ELISA (enzyme-linked immunosorbent assay) developing kits (commercially available from Peprotech). ELISA were performed according to the manufactory instructions of each kit by adding 100 μl/well of culture medium after overnight treatment. The substrate of ELISA reaction was using the substrate reagent from R&D Systems (DY999), and the reactions were stopped by adding 50 μl of 1N H2SO4 in each well. The results were measured using a colorimeter, absorbance was measured at 450 nanometers (nm) within 30 minutes. Wavelength correction was set to 570 nm. The concentration of each sample was calculated using ELISA standard curve.

[2] = system: HBD-3; experiment: HBD-3 ELISA, dose response in Neonatal Human Epidermal Keratinocytes; conditions: for HBD-3: NHEK, overnight (16 hours); for increase in HBD-3 production and/or activity: vs control culture medium
Method: as §1, with “HBD-3” for “HBD-1”
as §2, with “HBD-3” for “HBD-1”, “ELISA” for “ELISA (enzyme-linked immunosorbent assay)”

[3] = system: HBD-2; experiment: HBD-2 ELISA, dose response in Neonatal Human Epidermal Keratinocytes; conditions: for HBD-2: NHEK, overnight (16 hours)
Method: as §1, with “of HBD-2” for “of HBD-1”, “ingredients were” for “ingredients was”
as §2, with “HBD-2” for “HBD-1”, “ELISA” for “ELISA (enzyme-linked immunosorbent assay)”

Substance: palmitoyl pentapeptide-3 [Pamitoyl Pentapeptided-3]
- HBD-1 ([1]; 0.02% active ingredient): 59 pg/mL
- HBD-1 ([1]; 0.05% active ingredient): 57 pg/mL
- HBD-1 ([1]; 0.1% active ingredient): 64 pg/mL
- HBD-1 ([1]; 0.2% active ingredient): 85 pg/mL
- HBD-1 ([1]; 0.5% active ingredient): 162 pg/mL
- HBD-1 ([1]; 1% active ingredient): 259 pg/mL
- increase in HBD-1 production and/or activity ([1]; 1.0 wt. %): 311%
- HBD-1 ([1]; 2% active ingredient): 1047 pg/mL
- increase in HBD-1 production and/or activity ([1]; 2.0 wt. %): 1561%
- HBD-3 ([2]; 0.02% active ingredient): 288 pg/mL
- HBD-3 ([2]; 0.05% active ingredient): 242 pg/mL
- HBD-3 ([2]; 0.1% active ingredient): 387 pg/mL
- HBD-3 ([2]; 0.2% active ingredient): 775 pg/mL
- HBD-3 ([2]; 0.5% active ingredient): 2278 pg/mL
- HBD-3 ([2]; 1% active ingredient): 4783 pg/mL
- increase in HBD-3 production and/or activity ([2]; 1.0 wt. %): 1005%
- HBD-3 ([2]; 2% active ingredient): 8617 pg/mL
- increase in HBD-3 production and/or activity ([2]; 2.0 wt. %): 1890%
- HBD-2 ([3]; 0.02% active ingredient): 9 pg/mL
- HBD-2 ([3]; 0.05% active ingredient): 8 pg/mL
- HBD-2 ([3]; 0.1% active ingredient): 9 pg/mL
- HBD-2 ([3]; 0.2% active ingredient): 14 pg/mL
- HBD-2 ([3]; 0.5% active ingredient): 21 pg/mL
- HBD-2 ([3]; 1% active ingredient): 72 pg/mL
- HBD-2 ([3]; 2% active ingredient): 203 pg/mL
- increase in HBD-2 production and/or activity ([3]; 2.0 wt. %, vs control culture medium): 2800%
